# From US20240156764A1, “INHIBITION OF URACIL DNA GLYCOSYLASE IN THE OPEN CONFORMATION” (CASE WESTERN RESERVE UNIVERSITY, priority 2022, published 2024)
# Biological target: human UDG (Homo sapiens, UniProt P13051)
# Assay: Microscale thermophoresis (MST) binding
# Set-up: Bacterially expressed and purified full-length human UDG; made in house
# Description: The data for thermophoresis was recorded at 20° C. using the blue LED at 20% and IR-Laser at 40%. The isotherm derived from the raw data and fitted according to the law of mass action. […] Then 2 μL of 10× Sypro dye and 2 μL of ddH20 (Applied biosystems cat #4461141) were added. Monitoring of fluorescence took place for 2 hr (Bioraid CFX96, Hex filter, 25-97° C., 1.6° C./2 min). Negative (−) derivative RFU raw data and plots from the machine were obtained and analyzed. […] Melting temperature (Tm) value was taken directly from the midpoint on the −dRFU/dt vs. temperature graph. Each point on the graph represents an average of three data sets. Y error bars represent the standard deviation.
# Bacterially expressed and purified full-length human UDG was fluorescently labeled with Atto488 NHS ester according to the manufacturer's protocol. […] The samples were loaded into silica premium capillaries (Polymicro Technologies) after incubation at room temperature for 15 min measurements were performed at 20° C., by using 20% LED power and 40% IR-laser power. Measurements were also carried out on 40 and 60% IR-Laser power for comparison. The raw data were exported to GraphPad Prism8 software, KD value was obtained by data fitting with a one-site specific binding model.
# Sequence of human UDG (P13051 whole entry): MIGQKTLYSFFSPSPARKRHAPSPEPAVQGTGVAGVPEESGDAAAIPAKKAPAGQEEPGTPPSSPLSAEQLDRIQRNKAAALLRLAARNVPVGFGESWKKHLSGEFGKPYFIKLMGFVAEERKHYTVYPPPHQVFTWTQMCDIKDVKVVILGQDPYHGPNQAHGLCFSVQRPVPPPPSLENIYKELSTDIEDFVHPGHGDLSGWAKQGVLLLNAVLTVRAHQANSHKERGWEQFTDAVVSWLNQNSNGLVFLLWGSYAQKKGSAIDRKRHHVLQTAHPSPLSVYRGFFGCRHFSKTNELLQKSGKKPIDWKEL
smiles,measurement,setting,value
N.N.N.O=C(O)C1=CC(=C(c2ccc(O)c(C(=O)O)c2)c2ccc(O)c(C(=O)O)c2)C=CC1=O [ATA NH4 salt],Kd,"MST, 100 nM labelled UDG, estimated, read-out: binding dissociation constant (KD)",< 700 nM
same,direct binding to the purified human UDG protein,more soluble ATA NH4 salt form,significant improvement in direct binding
